Measurements: patent publication US11523610B2, “Regulating plant growth using a diapocarotenoid” (King Abdullah University of Science and Technology, priority 2018, dated 2022)
“Also recorded” adds a separate entry of the source.

Key:
Type in all cases: in vivo
[1] = tested on: Arabidopsis seedlings (root gravitropism); assay: Root gravitropism of NPA treated seedlings; settings: 5 DAG seedlings, 1 μM NPA plus 20 μM anchorene
Experimental: To determine if the effect of anchorene on ANR development is caused by changes in auxin distribution, the activity of anchorene in the presence of NPA was evaluated. […] Vertical grown 5 DAG seedlings on half MSO with indicated treatments were analyzed. The orientation of root growth was measured and then was assigned to one of twelve 30° sectors. […] The auxin efflux carrier PIN3 plays an important role in LR initiation and emergence. Therefore, the effect of anchorene on PIN3 using the pPIN3::PIN3-GFP marker line was examined.

[2] = tested on: Arabidopsis root growth (Col-0 seedlings); assay: Primary root length of Arabidopsis seedlings on treated half MS agar plates
Experimental: β-cyclocitral, β-ionone and D′orenone (β-Apo-13-caroteneone) (FIG. 1A) were purchased from Buchem (Netherlands). Diapo1, Diapo2, Diapo3, Diapo4, Diapo5, and Diapo6 (FIG. 1B) were synthesized by Buchem (Netherlands). Diapo3 was also synthesized together with D6-anchorene and anchorene derivatives according to the protocol of SCHEME 2. Apocarotenoids and diapocarotenoids were dissolved in acetone to make stock solutions (10 mM). For the screening experiments, each chemical was diluted in half strength Murashige and Skoog (MS) media (with 0.5% sucrose+1% agar, 0.5 g/L MES, pH 5.7) to reach indicated concentrations of 25 μM and 5 μM. A stock solution of 10 mM GR24 (Chiralix, Netherlands) was also made by diluting GR24 in acetone. Stock solutions of D15 (100 mM), Norflurazone (5 mM), and CPTA (50 mM) were made in dimethyl sulfoxide (DMSO). For experiments, these compounds were diluted in concentrations of 125 μM D15, 500 nM Norflurazone, or 100 μM CPTA, respectively. 1-Naphthaleneacetic acid (NAA) and N-1-Naphthylphthalamic Acid (NPA) were purchased from Sigma-Aldrich (Germany) and dissolved in water to make 1 mM stock solutions. For NAA and NPA treatments, media containing 0.1 μM NAA and 1 μM NPA were used. Unless otherwise noted, all commercially available compounds were used as provided without further purification.
Sterilized Col-0 and mutants seeds were kept at 4° C. in darkness for 3 days to stimulate seed germination, and then sown on half strength MSO plates (with 0.5% sucrose +1% agar, 0.5g/L MES, pH 5.7) supplemented with the indicated chemicals as described below or in the Figures. Plates were vertically grown in PERCIVAL® growth chambers under long day (16 h light/8 h dark, 22° C., 60% relative humidity, light density: 4000 LUX) LED white light [HYPERIKON® 16 W LED Light Bulb A21, 16 W (100 W Equivalent), CRI92, 1620 Lumens, 4000K (Daylight Glow)] conditions. Light fluorescence rates were measured using a digital LUX meter ([…]® 5025).
ANRs were counted in seedlings vertically grown on half strength MS (with 0.5% sucrose +1% agar, 0.5 g/L MES, pH 5.7) media 8 days post-stratification (dps) using a dissection microscope. To investigate ANR formation after root apical meristems (RAM) excision (ANR-RE), RAM of seedlings were excised using sterile scalpels at 5 dps and then grown for another 3 days prior to counting the number of emerged ANRs. RAM of seedlings were excised at 8 dps and then grown for another 3 days prior to counting the number of emerged LRs. For determining the effect of anchorene on lateral roots, the number of emerged lateral roots were counted using a dissection microscope at 8 dps. For primary root length measurements, seedlings were measured using the publicly available ImageJ software (downloaded from rsbweb.nih.gov/ij/) after taking digital photographs. For adventitious root assay, the number of emerged adventitious roots per plant were counted after 5 days of treatment on plates with or without anchorene.
Six previously identified or predicted diapocarotenoids with chain lengths ranging from C9 to C15 (Diapo1-6) (FIG. 1B) and 3 apocarotenoids (FIG. 1C) were selected to identify new carotenoid-derived signals involved in root development). These compounds were selected because they are available and stable at ambient conditions. Diapo1 (C9) is the expected product formed upon cleavage of all-trans-β-apo-10′ carotenal. Diapo2 (C10) results from cleaving the C7, C8 and C15, C15′ double bonds in different carotenoids and is produced by cyanobacterial retinal-forming enzymes from Cm-apocarotenoids. Diapo3 (C10) is a structural isomer of Diapo2 and a predicted cleavage product that can be formed by cutting the C11, C12 and C11′, C12′ bonds in almost all plant carotenoids (FIGS. 1A, 1B and 17). Diapo4 (C12) results from cleaving the C7, C8 and C13′, C14′ bonds in many carotenoids, and is formed by the CCD1 from apo-10′-lycopenal.

[3] = tested on: maize; assay: Maize hydroponic growth with anchorene
Experimental: FIGS. 20A-C show anchorene promotes root growth in maize according to one or more embodiments of the present disclosure. (A) represents the timeline for the hydroponic system for maize growing and anchorene treatment. […] (C) is a histogram quantifying the root and shoot length (cm) of maize seedlings with or without anchorene treatment
Arabidopsis is a dicot model plant. To test the effect of anchorene on monocot plant and crops, the biological functions of anchorene was evaluated on two important crops, rice and maize, under hydroponic conditions. Excitingly, a clear effect of anchorene on rice primary root and crown root growth (FIGS. 19B-E). A clear effect on shoot growth was not observed during this period, which might indicate anchorene specifically regulates root architecture. Similar effect was also examined in maize (FIGS. 20B-C). […] Root growth promoting not only could better anchor the plant, but also increase the volume of the plant root which will facilitate the water and nutrient absorption for the plant.

Structure (SMILES): C\C(C=O)=C/C=C/C=C(\C)C=O [anchorene, 12,12′-diapocarotene-12,12′-dial]
- gravitropism in NPA treated seedlings [1]: largely restored
- inhibition of primary root growth ([2]; 25 μM, 7 dps): weak inhibition
- inhibition of primary root length ([2]; 8 DAG Col-0 seedlings, different concentrations of anchorene (FIG. 3F)): minor inhibition; also recorded: weak inhibitory effect
- growth of primary root and lateral roots in maize [3]: greatly promoted
